The values below come from ChEMBL document CHEMBL3217666, “Synthesis, thiol-mediated reactive oxygen species generation profiles and anti-proliferative activities of 2,3-epoxy-1,4-naphthoquinones” (Medchemcomm, 2012).

Data set [1] can be described thus: Antiproliferative activity against human THP1 cells after 72 hrs by XTT assay. The class given is functional, cell-based. The note with it: THP-1, 72 h. A general note: Tetrazolium assays rely on reduction of a dye to a coloured formazan, in cell work by metabolically active cells.
A short description of data set [2]: Induction of hydrogen peroxide generation at 100 uM after 30 mins by xylenol orange staining-based spectrophotometry in presence of GSH and oxygen. The class given is physicochemical. The conditions noted are these: 0.5 h.
Data set [3] is described as follows: Antiproliferative activity against human glioma cells. Type of data set: functional, cell-based. The conditions noted are these: Glioma cell.
The test system of data set [4] is HEK293. Nature of the data set: Antiproliferative activity against HEK293 cells after 72 hrs by XTT assay. The class given is cell-based. The note with it: Homo sapiens, HEK293, 72 h.
Data set [5] concerns HEK293. Nature of the data set: Selectivity index, ratio of IC50 for HEK293 cells to IC50 for human THP1 cells. The class given is functional.

What is called IC50 is the point on the concentration scale where inhibition reaches its midpoint. Read a high IC50 as weaker potency in that assay. Consider `O=C1c2cccc(O)c2C(=O)C2OC12` (stereo not given), for which 11.2 µM corresponded to half-maximal inhibition in data set [1] (IC50). The Activity in data set [2] amounted to 5.64 µM.

Take `Cc1ccc(C23OC2C(=O)c2ccccc2C3=O)cc1` (stereo not given): in data set [1], the IC50 is 20.4 µM. Besides, in data set [2], the Activity was 1.48 µM.

In the case of `O=C1c2cccc(OCc3ccccc3)c2C(=O)C2OC12` (stereo not given), the IC50 in data set [1] was 28 µM. For the same molecule, the Activity in data set [2] is 1.6 µM.

`CC(=O)c1ccc(C23OC2C(=O)c2ccccc2C3=O)cc1` (stereo not given) displayed an IC50 in data set [1] above 50 µM. Further, the Activity in data set [2] turned out to be 1.36 µM.

The molecule `O=C1c2cccc(OCc3ccc(C(F)(F)F)cc3)c2C(=O)C2OC12` (stereo not given) showed an IC50 in data set [1] above 50 µM. Moreover, the Activity in data set [2] turned out to be 1.68 µM.

As to `O=C1c2ccccc2C(=O)C2(c3ccccc3)OC12` (stereo not given), the IC50 in data set [1] was above 50 µM. For the same molecule, the Activity in data set [2] worked out at 1.44 µM.

On to `CC12OC1C(=O)c1c(O)cccc1C2=O` (stereo not given), for which, in data set [1], the IC50 amounted to 22.8 µM. Also, in data set [2], the Activity was determined as 1.6 µM.

With `CC12OC1C(=O)c1c(OCc3ccccc3)cccc1C2=O` (stereo not given), in data set [1], the IC50 was above 50 µM. The Activity in data set [2] came out at 1.58 µM.

For `CC12OC1C(=O)c1ccccc1C2=O` (stereo not given), the IC50 in data set [1] is 13.6 µM; in data set [3] it was 15.7 µM. Besides, in data set [2], the Activity worked out at 1.52 µM.

The molecule `Nc1cccc2c1C(=O)C1OC1C2=O` (stereo not given) yielded an IC50 in data set [1] above 50 µM. Moreover, the Activity in data set [2] was 1.68 µM.

As for `O=C1c2ccccc2C(=O)C2(c3ccc(F)cc3)OC12` (stereo not given), 11.7 µM corresponded to half-maximal inhibition in data set [1] (IC50). For the same molecule, in data set [2], the Activity was determined as 1.36 µM.

In the case of `O=C1c2ccc([N+](=O)[O-])cc2C(=O)C2OC12` (stereo not given), the 50% inhibitory concentration (IC50) in data set [1] came to 2.3 µM; in data set [4], 55.4 µM. Moreover, in data set [2], the Activity is 8.34 µM.

Take `O=C1c2cccc([N+](=O)[O-])c2C(=O)C2OC12` (stereo not given): the IC50 was found to be 3.6 µM in data set [1] and 12.4 µM in data set [4]. In data set [2], the Activity was determined as 5.2 µM.

As for `CCOc1cccc2c1C(=O)C1OC1C2=O` (stereo not given), the IC50 in data set [1] was found to be 9.6 µM. The Activity in data set [2] was 1.68 µM.

Take `O=C1c2ccccc2C(=O)C2OC12` (stereo not given): the figures for the IC50 in data set [1] and in data set [4] were 6.3 µM and 18.9 µM, respectively. In addition, in data set [2], the Activity came to 4.4 µM.

With `O=C1c2ccccc2C(=O)C2(c3cccc([N+](=O)[O-])c3)OC12` (stereo not given), in data set [1], the half-inhibitory concentration (IC50) is above 50 µM. Also, the Activity in data set [2] is 1.4 µM.

For the molecule `COc1cccc2c1C(=O)c1c(O)c3c(c(O)c1C2=O)C[C@@](O)(C(=O)CO)C[C@@H]3O[C@H]1C[C@H](N)[C@H](O)[C@H](C)O1` [DOXORUBICIN], the IC50 was 0.11 µM in data set [1] and 0.7 µM in data set [4]. In data set [5], the “Ratio IC50” value stood at 6.4.

In turn, `COc1ccc(C23OC2C(=O)c2ccccc2C3=O)cc1` (stereo not given) had an IC50 in data set [1] of 11.6 µM. Further, the Activity in data set [2] is 1.4 µM.

Regarding `COc1cccc(C23OC2C(=O)c2ccccc2C3=O)c1` (stereo not given), the IC50 in data set [1] is above 50 µM. Also, the Activity in data set [2] is 1.46 µM.

With `COc1ccccc1C12OC1C(=O)c1ccccc1C2=O` (stereo not given), it took 12.4 µM to reach half-maximal inhibition in data set [1] (IC50). For the same molecule, the Activity in data set [2] is 1.28 µM.
